Measurements reported in patent US20240024488A1, “COMPOUNDS AND USES THEREOF” (Foghorn Therapeutics Inc., priority 2020, published 2024).

Columns and labels:
[1] = target: T1, HiBit-BRG1 fusion protein (Homo sapiens, UniProt P51532); test: HiBiT-BRG1 cell-based degradation assay (Nano-Glo HiBiT Lytic Detection, 24 h); details: HeLa cell line expressing HiBit-BRG1 and LgBit; for Dmax: read-out: BRG1 HiBit Degradation Maximum (%); for DC50: read-out: BRMG1 HiBit Degradation IC50
T1 construct: expressed in transfected cells
In short: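 Luminescence from Nano-Glo HiBiT lytic detection, read after 24 h compound exposure, scored degradation in a stable HeLa HiBiT-BRG1/LgBit line seeded at 5000 cells/well. DMSO wells defined 0% and 2 μM known BRM/BRG1 degrader wells defined full degradation.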

HiBit-BRM fusion protein = target: T2, HiBit-BRM fusion protein (Homo sapiens, UniProt P51531); test: HiBiT-BRM cell-based degradation assay (Nano-Glo HiBiT Lytic Detection, 24 h); details: HeLa cell line expressing HiBiT-BRM; for DC50: read-out: BRM HiBit Degradation IC50
T2 construct: expressed in transfected cells
In short: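 Stable HiBiT-BRM HeLa line; 24 h compound exposure, top final 30 μM, 3-fold, 10 pts in duplicate. Lytic HiBiT/LgBiT luminescence readout. % degradation vs DMSO (0%) and 2 μM known BRM/BRG1 degrader (100%).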

T1 sequence (P51532 whole entry, the tested form may be a part): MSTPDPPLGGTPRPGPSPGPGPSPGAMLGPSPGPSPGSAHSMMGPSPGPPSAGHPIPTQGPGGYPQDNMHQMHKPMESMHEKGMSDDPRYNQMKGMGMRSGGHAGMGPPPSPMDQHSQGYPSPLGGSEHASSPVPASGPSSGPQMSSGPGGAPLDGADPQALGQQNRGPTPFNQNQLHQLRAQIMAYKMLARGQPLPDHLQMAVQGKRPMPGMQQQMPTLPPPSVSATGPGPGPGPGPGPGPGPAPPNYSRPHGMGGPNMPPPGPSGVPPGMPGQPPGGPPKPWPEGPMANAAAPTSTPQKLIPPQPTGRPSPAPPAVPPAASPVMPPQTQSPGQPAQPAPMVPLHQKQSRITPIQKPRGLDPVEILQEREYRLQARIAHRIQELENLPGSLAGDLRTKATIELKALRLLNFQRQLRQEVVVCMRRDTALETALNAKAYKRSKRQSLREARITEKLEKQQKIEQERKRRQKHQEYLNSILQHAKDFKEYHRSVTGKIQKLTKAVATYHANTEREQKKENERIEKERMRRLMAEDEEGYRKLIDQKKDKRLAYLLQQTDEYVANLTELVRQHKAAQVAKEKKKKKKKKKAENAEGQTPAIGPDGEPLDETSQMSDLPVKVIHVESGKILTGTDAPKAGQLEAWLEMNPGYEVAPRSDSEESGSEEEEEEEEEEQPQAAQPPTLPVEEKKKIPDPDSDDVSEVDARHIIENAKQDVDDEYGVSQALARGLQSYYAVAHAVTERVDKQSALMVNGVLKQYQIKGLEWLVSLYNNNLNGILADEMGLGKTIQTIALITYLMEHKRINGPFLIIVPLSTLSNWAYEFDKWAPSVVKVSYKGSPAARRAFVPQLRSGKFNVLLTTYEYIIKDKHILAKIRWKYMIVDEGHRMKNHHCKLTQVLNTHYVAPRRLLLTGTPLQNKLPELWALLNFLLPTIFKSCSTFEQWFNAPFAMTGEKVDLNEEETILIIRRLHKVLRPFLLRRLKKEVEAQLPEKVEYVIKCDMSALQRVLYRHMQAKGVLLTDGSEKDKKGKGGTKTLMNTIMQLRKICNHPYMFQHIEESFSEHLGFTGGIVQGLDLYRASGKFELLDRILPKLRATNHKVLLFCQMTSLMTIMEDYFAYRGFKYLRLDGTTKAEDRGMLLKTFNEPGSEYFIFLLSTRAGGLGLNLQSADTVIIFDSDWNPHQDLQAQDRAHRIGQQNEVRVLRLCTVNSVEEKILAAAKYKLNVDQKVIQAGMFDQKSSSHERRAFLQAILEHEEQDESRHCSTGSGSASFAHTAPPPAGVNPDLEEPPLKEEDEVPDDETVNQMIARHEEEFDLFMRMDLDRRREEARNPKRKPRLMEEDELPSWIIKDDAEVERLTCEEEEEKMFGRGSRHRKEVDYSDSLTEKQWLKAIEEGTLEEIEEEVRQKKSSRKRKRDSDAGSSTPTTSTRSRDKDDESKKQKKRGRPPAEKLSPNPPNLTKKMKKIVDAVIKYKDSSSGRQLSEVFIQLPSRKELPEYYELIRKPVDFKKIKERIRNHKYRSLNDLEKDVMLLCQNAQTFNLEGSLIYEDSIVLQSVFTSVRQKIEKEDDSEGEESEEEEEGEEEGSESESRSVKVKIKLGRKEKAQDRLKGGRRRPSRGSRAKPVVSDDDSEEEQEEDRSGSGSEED
T2 sequence (P51531 whole entry, the tested form may be a part): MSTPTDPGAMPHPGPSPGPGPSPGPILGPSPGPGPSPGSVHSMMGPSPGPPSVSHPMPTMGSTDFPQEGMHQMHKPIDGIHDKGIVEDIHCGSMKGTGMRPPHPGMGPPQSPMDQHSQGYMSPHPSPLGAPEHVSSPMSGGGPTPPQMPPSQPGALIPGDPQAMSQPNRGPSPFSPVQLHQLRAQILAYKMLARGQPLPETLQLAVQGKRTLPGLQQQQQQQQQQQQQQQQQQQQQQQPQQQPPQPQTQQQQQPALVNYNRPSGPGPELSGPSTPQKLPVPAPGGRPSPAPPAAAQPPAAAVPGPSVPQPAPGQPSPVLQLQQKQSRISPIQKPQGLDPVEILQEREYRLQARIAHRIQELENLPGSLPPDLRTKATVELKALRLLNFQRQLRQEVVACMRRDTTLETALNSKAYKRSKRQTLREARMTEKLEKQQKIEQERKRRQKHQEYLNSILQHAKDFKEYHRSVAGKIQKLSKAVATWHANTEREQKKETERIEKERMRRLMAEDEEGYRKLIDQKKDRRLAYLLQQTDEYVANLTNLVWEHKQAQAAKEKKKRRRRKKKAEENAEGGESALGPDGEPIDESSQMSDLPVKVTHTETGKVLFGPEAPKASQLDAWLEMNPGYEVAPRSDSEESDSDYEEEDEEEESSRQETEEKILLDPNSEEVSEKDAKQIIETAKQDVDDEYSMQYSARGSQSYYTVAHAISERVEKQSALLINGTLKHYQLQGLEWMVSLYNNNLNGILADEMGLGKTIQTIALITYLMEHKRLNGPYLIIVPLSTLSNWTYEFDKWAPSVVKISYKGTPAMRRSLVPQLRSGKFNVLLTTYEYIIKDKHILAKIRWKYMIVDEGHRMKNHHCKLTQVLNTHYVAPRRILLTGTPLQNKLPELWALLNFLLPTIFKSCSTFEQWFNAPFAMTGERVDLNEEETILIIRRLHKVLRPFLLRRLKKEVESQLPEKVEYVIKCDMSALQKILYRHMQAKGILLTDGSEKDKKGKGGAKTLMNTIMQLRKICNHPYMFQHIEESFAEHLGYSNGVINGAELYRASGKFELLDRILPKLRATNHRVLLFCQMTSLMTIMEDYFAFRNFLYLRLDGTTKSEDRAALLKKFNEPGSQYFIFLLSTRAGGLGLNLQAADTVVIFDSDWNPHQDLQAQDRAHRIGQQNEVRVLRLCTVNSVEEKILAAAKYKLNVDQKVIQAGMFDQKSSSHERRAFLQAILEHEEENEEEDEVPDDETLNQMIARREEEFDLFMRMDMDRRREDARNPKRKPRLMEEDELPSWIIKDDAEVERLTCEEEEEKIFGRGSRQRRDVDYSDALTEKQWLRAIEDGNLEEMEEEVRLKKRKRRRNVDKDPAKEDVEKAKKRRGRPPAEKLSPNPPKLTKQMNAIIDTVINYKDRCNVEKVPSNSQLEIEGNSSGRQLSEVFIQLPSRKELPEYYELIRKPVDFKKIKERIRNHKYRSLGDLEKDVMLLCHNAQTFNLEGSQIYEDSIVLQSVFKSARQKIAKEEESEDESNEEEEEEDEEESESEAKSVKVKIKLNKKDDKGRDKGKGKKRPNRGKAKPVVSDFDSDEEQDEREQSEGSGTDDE

Row | SMILES | Dmax [1] [%] | BRM HiBit Degradation Maximum (%) (HiBit-BRM fusion protein) | DC50 (HiBit-BRM fusion protein) [nM] | DC50 [1] [nM]
1 | Cc1ncsc1-c1ccc([C@H](C)NC(=O)[C@@H]2C[C@@H](O)CN2C(=O)[C@@H](c2cc(OCCN3CC(c4[nH]c5nnc(-c6ccccc6O)cc5c4Cl)C3)no2)C(C)C)cc1 (racemic) [Compound 238, (2S,4R)-1-[(2R)-2-[3-(2-{3-[5-chloro-3-(2-hydroxyphenyl)-7H-pyrrolo[2,3-c]pyridazin-6-yl]azetidin-1-yl}ethoxy)-1,2-oxazol-5-yl]-3-methylbutanoyl]-4-hydroxy-N-[(1S)-1-[4-(4-methyl-1,3-thiazol-5-yl)phenyl]ethyl]pyrrolidine-2-carboxamide] | < 50 | A (“A” indicates maximum degradation ≥ 75%) | > 10 | –
2 | Cc1ncsc1-c1ccc([C@H](C)NC(=O)[C@@H]2C[C@@H](O)CN2C(=O)[C@@H](c2cc(OCCNC(=O)c3cc4cc(-c5ccccc5O)nnc4[nH]3)no2)C(C)C)cc1 (racemic) [Compound 239, N-(2-((5-((R)-1-((2S,4R)-4-hydroxy-2-(((S)-1-(4-(4-methylthiazol-5-yl)phenyl)ethyl)carbamoyl)pyrrolidin-1-yl)-3-methyl-1-oxobutan-2-yl)isoxazol-3-yl)oxy)ethyl)-3-(2-hydroxyphenyl)-7H-pyrrolo[2,3-c]pyridazine-6-carboxamide] | < 50 | A (“A” indicates maximum degradation ≥ 75%) | > 100 | –
3 | Cc1ncsc1-c1ccc([C@H](C)NC(=O)[C@@H]2C[C@@H](O)CN2C(=O)[C@@H](c2cc(OCCNC(=O)C(=O)N3CC(c4cc5cc(-c6ccccc6O)nnc5[nH]4)C3)no2)C(C)C)cc1 (racemic) [Compound 240, (2S,4R)-4-hydroxy-1-((R)-2-(3-(2-(2-(3-(3-(2-hydroxyphenyl)-7H-pyrrolo[2,3-c]pyridazin-6-yl)azetidin-1-yl)-2-oxoacetamido)ethoxy)isoxazol-5-yl)-3-methylbutanoyl)-N-((S)-1-(4-(4-methylthiazol-5-yl)phenyl)ethyl)pyrrolidine-2-carboxamide] | > 50 | A (“A” indicates maximum degradation ≥ 75%) | > 100 | > 1000
4 | Cc1ncsc1-c1ccc([C@H](C)NC(=O)[C@@H]2C[C@@H](O)CN2C(=O)[C@@H](c2cc(OCCN(C)C(=O)c3cc4cc(-c5ccccc5O)nnc4[nH]3)no2)C(C)C)cc1 (racemic) [Compound 242, N-(2-((5-((R)-1-((2S,4R)-4-hydroxy-2-(((S)-1-(4-(4-methylthiazol-5-yl)phenyl)ethyl)carbamoyl)pyrrolidin-1-yl)-3-methyl-1-oxobutan-2-yl)isoxazol-3-yl)oxy)ethyl)-3-(2-hydroxyphenyl)-N-methyl-7H-pyrrolo[2,3-c]pyridazine-6-carboxamide] | < 50 | B (“B” indicates maximum degradation ≥ 50%) | > 100 | –
5 | Cc1ncsc1-c1ccc([C@H](C)NC(=O)[C@@H]2C[C@@H](O)CN2C(=O)[C@@H](c2cc(OCCN3CC(CCCc4cc5cc(-c6ccccc6O)nnc5[nH]4)C3)no2)C(C)C)cc1 (racemic) [Compound 243, (2S,4R)-4-hydroxy-1-[(2R)-2-{3-[2-(3-{3-[3-(2-hydroxyphenyl)-7H-pyrrolo[2,3-c]pyridazin-6-yl]propyl}azetidin-1-yl)ethoxy]-1,2-oxazol-5-yl}-3-methylbutanoyl]-N-[(1S)-1-[4-(4-methyl-1,3-thiazol-5-yl)phenyl]ethyl]pyrrolidine-2-carboxamide] | > 50 | A (“A” indicates maximum degradation ≥ 75%) | > 100 | > 1000
